From patent US20250127907A1, “PARP INHIBITORS” (Stablix, Inc., priority 2023, published 2025)
Where two headings read alike, the source gives them in different places.

Tests used:
[1] = test system: Poly/Mono-ADP Ribose in U2OS cells; assay: PAR in cell western assay (parylation) in U2OS cells; type: cell-based; details: read-out: Parylation (U2OS)
Protocol: U2OS cells are seeded at 2667 cells per well in 24 ul medium into poly-D lysine-coated 384 well plate and incubated in the TC incubator for O/N
The next day, test comps are diluted in a source plate and 6 μL of the diluted comp is added to the cell plate; mixed well and incubated for 6 hrs. DNA damage is induced with 2 mM H2O2 for 10 min. After discarding the medium, cells are fixed in ice cold Methanol at for 20 min at −20C. After a wash step at room temperature, cells are permeabilized with 0.05% NP-40 in PBS for 10 min, followed by wash steps. Cells are blocked with 1% BSA, at room temperature for 1 hr. Cells are stained with anti mono/polyADP ribose antibody (E6F6A, Cell signaling, 1:5000) in 1×PBS/1% BSA/0.05% Tween o/n at 4C.
Next Day, cells are washed and incubated with anti-Rabbit 800CV (Licor antibody, 1:500) and CellTag 700 (Licor, 1:800) in 1×PBS/1% BSA/0.05% Tween for 1 h. After washing, plates are scanned using LICOR and are quantified.
Parylation inhibition is reported as % control inhibition.
(§1) The letter codes for the PARP1-enzyme assay include: A (<1 nM), B (>1-10 nM), C (>10-100 nM), D (>100-1000 nM), E (>1000 nM), and “-” is not tested. The letter codes for the PARP trapping assay, and parylation assay include: A (<10 nM), B (>10-100 nM), C (>100-1000 nM), […], E (>10000 nM), and “-” is not tested.

PARP1 [2] = molecular target: T1, PARP1 (Homo sapiens, UniProt P09874); assay: PARP1-enzyme assay (NAD/NADH-Glo biochemical assay); details: recombinant PARP1, NAD+ consumption
Protocol: The PARP enzyme catalyzes the transfer of ADP-Ribose from NAD+ onto PAR chains/histone substrates. The catalytic cycle is monitored indirectly with the NAD/NADH-Glo Assay kit from Promega. […] NAD+ consumed is determined by comparison to the no enzyme control.
• Recombinant PARP1 • NAD+/NAHD-Glow assay Kit • Activated DNA, 10 μg/mL • NAD+(Nicotinamide Adenine Dinucleotide), 500 nM • Protein substrate for PARP1: Core Histone from chicken, 10 μg/mL
as §1
Target sequence in this assay (P09874 whole entry, species assumed): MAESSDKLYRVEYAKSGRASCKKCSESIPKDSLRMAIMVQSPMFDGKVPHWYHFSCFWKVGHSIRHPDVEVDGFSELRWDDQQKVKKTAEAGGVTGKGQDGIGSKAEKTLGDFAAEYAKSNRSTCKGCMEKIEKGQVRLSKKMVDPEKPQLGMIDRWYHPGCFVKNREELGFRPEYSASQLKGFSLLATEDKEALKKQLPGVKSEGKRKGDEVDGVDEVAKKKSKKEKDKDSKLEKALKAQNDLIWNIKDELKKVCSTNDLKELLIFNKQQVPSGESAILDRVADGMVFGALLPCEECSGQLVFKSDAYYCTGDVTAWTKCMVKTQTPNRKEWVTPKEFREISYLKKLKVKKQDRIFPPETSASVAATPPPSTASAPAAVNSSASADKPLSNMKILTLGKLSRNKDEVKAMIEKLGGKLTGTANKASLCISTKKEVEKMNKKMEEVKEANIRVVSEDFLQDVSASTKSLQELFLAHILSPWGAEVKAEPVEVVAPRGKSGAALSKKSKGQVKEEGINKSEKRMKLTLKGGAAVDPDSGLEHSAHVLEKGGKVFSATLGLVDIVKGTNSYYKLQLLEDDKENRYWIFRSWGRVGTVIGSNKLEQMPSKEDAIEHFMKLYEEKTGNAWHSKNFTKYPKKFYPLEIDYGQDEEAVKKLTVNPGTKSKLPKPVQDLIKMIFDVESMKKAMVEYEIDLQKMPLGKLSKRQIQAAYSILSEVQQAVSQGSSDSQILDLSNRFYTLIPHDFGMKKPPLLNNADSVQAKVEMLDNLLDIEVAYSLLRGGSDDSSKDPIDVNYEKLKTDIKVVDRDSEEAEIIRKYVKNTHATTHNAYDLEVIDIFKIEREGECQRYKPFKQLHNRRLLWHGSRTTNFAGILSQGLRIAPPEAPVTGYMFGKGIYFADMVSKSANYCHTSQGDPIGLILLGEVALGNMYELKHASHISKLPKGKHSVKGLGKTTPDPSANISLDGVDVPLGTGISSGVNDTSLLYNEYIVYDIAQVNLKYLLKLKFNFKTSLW

A2780 cells = assay: Cell proliferation assay (A2780); type: cell-based; details: 7 days
Protocol: (§2) Cells are counted, diluted to desired density and 40 μL of cell suspension is added into each 384-well tissue-culture treated plates. Plates are incubated in Tissue Culture incubator at 37° C./5% C02 overnight.
(§3) Next day, 40 nl test compounds that are prepared from source plates are transferred to the seeded cells from overnight. Plates are incubated at 37° C./5% C02 for a total of 7 days. After 7-day incubation, plates are equilibrated to room temperature and 30 ul of Cell Counting-Lite is added to each well for a 30 min incubation followed by reading on EnVision.
(§4) The letter codes for the cell proliferation assay in A2780, HCC1806, and MDA-MB-436 cells include: A (<10 nM), B (>10-100 nM), C (>100-1000 nM), D (>1000-10000 nM), E (>10000 nM), and “-” is not tested.

PARP1 [3] = molecular target: T1, PARP1; assay: PARP trapping assay in U2OS cells; type: cell-based; set-up: endogenous in cells; host or cells: U2OS; details: U2OS cells, MMS, 4 hrs; read-out: PARP Trapping (U2OS)
Protocol: U2OS cells are seeded at 15,000 cells/well in 90 ul medium and incubated in the TC incubator for overnight.
Next day, test compounds are prepared in a source plate along with addition of DNA damage reagent MMS simultaneously and 10 ul of the diluted mixture is added to the cell plate and incubated for 4 hrs under T/C conditions.
After 4 hrs, following aspiration and washing, add 100 ul of cold cytoskeleton removal buffer (0.5% Triton X-100) and incubated for 10 min. At the end of incubation, slowly the buffer is removed, and cells are fixed with ice cold MeOH for 15 min at −20C. Followed by wash steps, cells are blocked with 1×PBS/3% BSA/0.05% Tween for 1 h at room temperature.
Cells are stained with anti PARP1 antibody (abeam ab227244, 1:1000), in 1×PBS/1% BSA overnight at 4C.
Wash and add DAPI, scan cells in Celigo.
Data Analysis: DAPI staining is used to segment nuclei and AF488 fluorescence intensity per nucleus is measured.
as §1
Target sequence in this assay (P09874 whole entry): as the sequence (P09874 whole entry, species assumed) above

MDA-MB-436 cells = assay: Cell proliferation assay (MDA-MB-436); type: cell-based; details: 7 days
Protocol: as §2, §3, §4

HCC1806 cells = assay: Cell proliferation assay (HCC1806); type: cell-based; details: 7 days
Protocol: as §2, §3, §4

[4] = Homo sapiens, U2OS cells, 6 hrs, 2 mM H2O2

SMILES | IC50 [1, 4] [nM] | IC50 (PARP1 [2]) [nM] | IC50 (A2780 cells; Homo sapiens, 168 h) [nM] | IC50 (PARP1 [3]) [nM] | IC50 (MDA-MB-436 cells; Homo sapiens, 168 h) [nM] | IC50 (HCC1806 cells; Homo sapiens, 168 h) [nM] | IC50 ([1]; Homo sapiens, U2OS, 6 h) [nM] | IC50 ([1]; U2OS cells, 6 hrs, 2 mM H2O2) [nM] | IC50 (A2780 cells) [nM] | IC50 (HCC1806 cells) [nM] | IC50 (MDA-MB-436 cells) [nM]
O=C(N[C@@H](C(=O)N1CCN(CC2CCN(CC(=O)N3CCN(C(=O)c4cc(Cc5n[nH]c(=O)c6ccccc56)ccc4F)CC3)CC2)CC1)C1CCCCC1)c1cc(C2CCCN(C(=O)CNCc3ccc(F)cc3F)C2)ccc1F (stereo partly shown) [Compound I-346] | 10 to 100 | < 1 | 100 to 1000 | 100 to 1000 | 10 to 100 | – | – | – | – | – | –
O=C(N[C@@H](C(=O)N1CCN(CC2CCN(CC(=O)N3CCN(C(=O)c4cc(Cc5n[nH]c(=O)c6ccccc56)ccc4F)CC3)CC2)CC1)C1CCCCC1)c1cccc(C2CCCN(C(=O)COC3CC3)C2)c1 (stereo partly shown) [Compound I-353] | 100 to 1000 | < 1 | 100 to 1000 | 100 to 1000 | 10 to 100 | – | – | – | – | – | –
CC1(C(=O)N2CCC(c3cccc(C(=O)N[C@@H](C(=O)N4CCC(OC5CCN(CC(=O)N6CCN(C(=O)c7cc(Cc8n[nH]c(=O)c9ccccc89)ccc7F)CC6)CC5)CC4)C4CCCCC4)c3F)CC2)CC1 [Compound I-883] | 10 to 100 | – | 10 to 100 | 10 to 100 | < 10 | 10 to 100 | – | – | – | – | –
CC1(C(=O)N2CC(c3cccc(C(=O)N[C@@H](C(=O)N4CCC(OC5CCN(CC(=O)N6CCN(C(=O)c7cc(Cc8n[nH]c(=O)c9ccccc89)ccc7F)CC6)CC5)CC4)C4CCCCC4)c3F)CCC2(C)C)CC1 (stereo partly shown) [Compound I-884] | 100 to 1000 | – | 10 to 100 | 10 to 100 | < 10 | 10 to 100 | – | – | – | – | –
CC1(OC2CCN(CC(=O)N3CCN(C(=O)c4cc(Cc5n[nH]c(=O)c6ccccc56)ccc4F)CC3)CC2)CCN(C(=O)[C@H](NC(=O)c2cccc(C3CCCN(C(=O)C45CC(C4)C5)C3)c2F)C2CCCCC2)CC1 (stereo partly shown) [Compound I-892] | 100 to 1000 | – | 100 to 1000 | 10 to 100 | 10 to 100 | 100 to 1000 | – | – | – | – | –
CC1(OC2CCN(CC(=O)N3CCN(C(=O)c4cc(Cc5n[nH]c(=O)c6ccccc56)ccc4F)CC3)CC2)CCN(C(=O)[C@H](NC(=O)c2cccc(C3CCCN(C(=O)C4(C)CC4)C3)c2F)C2CCCCC2)CC1 (stereo partly shown) [Compound I-893] | 100 to 1000 | – | 100 to 1000 | 10 to 100 | 10 to 100 | 100 to 1000 | – | – | – | – | –
O=C(N[C@@H](C(=O)N1CCN(CC(=O)N2CCN(C(=O)c3cc(Cc4n[nH]c(=O)c5ccccc45)ccc3F)CC2)CC1)C1CCCCC1)c1cccc(C2CCCN(C(=O)CNCc3ccc(F)cc3F)C2)c1 (stereo partly shown) [Compound I-963] | – | < 1 | 100 to 1000 | – | 100 to 1000 | – | 100 to 1000 | – | – | – | –
CC(C)(C)C(=O)N1CCC[C@@H](c2cccc(C(=O)N[C@@H](C(=O)N3C4CCC3CC(OC3CCN(CC(=O)N5CCN(C(=O)c6cc(Cc7n[nH]c(=O)c8ccccc78)ccc6F)CC5)CC3)C4)C3CCCCC3)c2F)C1 (stereo partly shown) [Compound I-971] | 10 to 100 | – | 10 to 100 | 10 to 100 | < 10 | 100 to 1000 | – | – | – | – | –
CC(C)(C)OC(=O)N[C@@H](C(=O)N1C[C@H]2CC[C@@H](C1)[C@H]2OC1CCN(CC(=O)N2CCN(C(=O)c3cc(Cc4n[nH]c(=O)c5ccccc45)ccc3F)CC2)CC1)C1CCCCC1 [Compound I-990] | 10 to 100 | – | 10 to 100 | 10 to 100 | < 10 | 10 to 100 | – | – | – | – | –
CC(C)(C)OC(=O)N[C@@H](C(=O)NC12CCC(CN3CCC(C(=O)N4CCN(C(=O)c5cc(Cc6n[nH]c(=O)c7ccccc67)ccc5F)CC4)CC3)(CC1)OC2)C1CCCCC1 [Compound I-993] | – | – | – | 10 to 100 | – | – | – | 10 to 100 | 10 to 100 | 10 to 100 | < 10
